# Measured values published in article PMC8227400, “Novel N-Arylsulfonylindoles Targeted as Ligands of the 5-HT6 Receptor. Insights on the Influence of C-5 Substitution on Ligand Affinity” (Pharmaceuticals, 2021).
# pKi: −log10 of the molar value.
# Tested on: not given
# Details: not given
row,SMILES,melting point [°C]
1,"COc1ccccc1N1CCN(CC(O)c2cn(S(=O)(=O)c3ccc(I)cc3)c3ccc(F)cc23)CC1 (centres unmarked) [4a, 1-(5-fluoro-1-((4-iodophenyl)sulfonyl)-1H-indol-3-yl)-2-(4-(2-methoxyphenyl)piperazin-1-yl) ethan-1-ol]",94.5 to 96.4
2,"O=S(=O)(c1ccc(I)cc1)n1cc(C(O)CN2CCN(c3ccccn3)CC2)c2cc(F)ccc21 (centres unmarked) [4b, 1-(5-fluoro-1-((4-iodophenyl)sulfonyl)-1H-indol-3-yl)-2-(4-(pyridin-2-yl)piperazin-1-yl)ethan-1-ol]",135 to 137
3,"COc1ccccc1N1CCN(CC(O)c2cn(S(=O)(=O)c3cccc4ccccc34)c3ccc(F)cc23)CC1 (centres unmarked) [4d, 1-(5-fluoro-1-(naphthalen-1-ylsulfonyl)-1H-indol-3-yl)-2-(4-(2-methoxyphenyl)piperazin-1-yl)ethan-1-ol]",181.1 to 183.2
4,"O=S(=O)(c1cccc2ccccc12)n1cc(C(O)CN2CCN(c3ccccn3)CC2)c2cc(F)ccc21 (centres unmarked) [4e, 1-(5-fluoro-1-(naphthalen-1-ylsulfonyl)-1H-indol-3-yl)-2-(4-(pyridin-2-yl)piperazin-1-yl)ethan-1-ol]",112 to 114
5,"O=S(=O)(c1cccc2ccccc12)n1cc(C(O)CN2CCOCC2)c2cc(F)ccc21 (centres unmarked) [4f, 1-(5-fluoro-1-(naphthalen-1-ylsulfonyl)-1H-indol-3-yl)-2-morpholinoethan-1-ol]",164.1 to 165.8
6,"O=S(=O)(c1cccc2ccccc12)n1cc(C(O)CN2CCN(c3ncccn3)CC2)c2cc(F)ccc21 (centres unmarked) [4g, 1-(5-fluoro-1-(naphthalen-1-ylsulfonyl)-1H-indol-3-yl)-2-(4-(pyrimidin-2-yl)piperazin-1-yl)ethan-1-ol]",100 to 103
7,"COc1ccc2c(c1)c(C(O)CN1CCN(c3ccccc3OC)CC1)cn2S(=O)(=O)c1ccc(I)cc1 (centres unmarked) [4j, 1-(1-((4-iodophenyl)sulfonyl)-5-methoxy-1H-indol-3-yl)-2-(4-(2-methoxyphenyl)piperazin-1-yl)ethan-1-ol]",101 to 104
8,"COc1ccc2c(c1)c(C(O)CN1CCOCC1)cn2S(=O)(=O)c1ccc(I)cc1 (centres unmarked) [4k, 1-(1-((4-iodophenyl)sulfonyl)-5-methoxy-1H-indol-3-yl)-2-morpholinoethan-1-ol]",120 to 124
9,"COc1ccc2c(c1)c(C(O)CN1CCN(c3ccccc3OC)CC1)cn2S(=O)(=O)c1cccc2ccccc12 (centres unmarked) [4l, 1-(5-methoxy-1-(naphthalen-1-ylsulfonyl)-1H-indol-3-yl)-2-(4-(2-methoxyphenyl)piperazin-1-yl)ethan-1-ol]",105 to 107
10,"COc1ccc2c(c1)c(C(O)CN1CCOCC1)cn2S(=O)(=O)c1cccc2ccccc12 (centres unmarked) [4m, 1-(5-methoxy-1-(naphthalen-1-ylsulfonyl)-1H-indol-3-yl)-2-morpholinoethan-1-ol]",190 to 192

# Biological target: 5-HT6 receptor
# Details: cited from earlier work
row,SMILES,pKi
1,COc1ccc2c(c1)c(CCN(C)C)cn2S(=O)(=O)c1ccccc1 [MS-245],8.64
